Data reported in patent publication US4108726A, “Sarcoidosis test” (Research Corporation, priority 1976, dated 1978).
Each block holds one molecule with its values, some of them ahead of it. Where a SMILES comes first, the peptide text is derived from it. The star is where a group is joined. Bz = O=C(c1ccccc1)*

What was measured:
[1] = tested on: L-histidyl-L-leucine peptidase; test: Hydrolysis of L-histidyl-L-leucine by human serum peptidase, fluorimetric; format: biochemical; conditions: estimated from 1/v-1/S plots
Procedure: Hydrolysis of the product L-histidyl-L-leucine was determined fluorimetrically by adding L-histidyl-L-leucine to an assay mixture which contained buffer and serum and was handled as described for the enzyme assays, including a zero time control. Hydrolysis was accompanied by a decrease in fluorescence from that obtained with the initial concentration as determined in the zero time control. The quantity hydrolyzed was determined by multiplying the fraction hydrolyzed (decrease in FI/initial FI) by the initial concentration. No correction was made for the fluorescence of L-histidine since it was only about 8% of the fluorescence of L-histidyl-L-leucine.
The activity of the L-histidyl-L-leucine hydrolyzing activity was measured in several sera under the conditions of the orginal assay (50 μl sera in 125 μl 0.1 M K phosphate-0.3 M NaCl, pH 8.3) using as substrate 0.2 mM L-histidyl-L-leucine, a concentration typically formed in the angiotensin converting enzyme reaction mixture. […] The velocity of the L-histidyl-L-leucine peptidase reaction was determined at varying L-histidyl-L-leucine concentrations. The Km for L-histidyl-L-leucine of the peptidase was estimated from l/.nu.-l/S plots, see Lineweaver, H. and Burk, D. (1934). J. Amer. Chem. Soc. 56, 658, to be 0.16 mM. […]

[2] = tested on: porcine lung L-histidyl-L-leucine peptidase; conditions: Lee, Larue and Wilson 1971; cited from earlier work
[3] = target: serum angiotensin-converting enzyme (Homo sapiens, UniProt P12821); test: Spectrofluorimetric serum angiotensin converting enzyme assay with hippuryl-L-histidyl-L-leucine substrate; format: biochemical; conditions: FIG. 2
serum angiotensin-converting enzyme, sequence (P12821 30-1232): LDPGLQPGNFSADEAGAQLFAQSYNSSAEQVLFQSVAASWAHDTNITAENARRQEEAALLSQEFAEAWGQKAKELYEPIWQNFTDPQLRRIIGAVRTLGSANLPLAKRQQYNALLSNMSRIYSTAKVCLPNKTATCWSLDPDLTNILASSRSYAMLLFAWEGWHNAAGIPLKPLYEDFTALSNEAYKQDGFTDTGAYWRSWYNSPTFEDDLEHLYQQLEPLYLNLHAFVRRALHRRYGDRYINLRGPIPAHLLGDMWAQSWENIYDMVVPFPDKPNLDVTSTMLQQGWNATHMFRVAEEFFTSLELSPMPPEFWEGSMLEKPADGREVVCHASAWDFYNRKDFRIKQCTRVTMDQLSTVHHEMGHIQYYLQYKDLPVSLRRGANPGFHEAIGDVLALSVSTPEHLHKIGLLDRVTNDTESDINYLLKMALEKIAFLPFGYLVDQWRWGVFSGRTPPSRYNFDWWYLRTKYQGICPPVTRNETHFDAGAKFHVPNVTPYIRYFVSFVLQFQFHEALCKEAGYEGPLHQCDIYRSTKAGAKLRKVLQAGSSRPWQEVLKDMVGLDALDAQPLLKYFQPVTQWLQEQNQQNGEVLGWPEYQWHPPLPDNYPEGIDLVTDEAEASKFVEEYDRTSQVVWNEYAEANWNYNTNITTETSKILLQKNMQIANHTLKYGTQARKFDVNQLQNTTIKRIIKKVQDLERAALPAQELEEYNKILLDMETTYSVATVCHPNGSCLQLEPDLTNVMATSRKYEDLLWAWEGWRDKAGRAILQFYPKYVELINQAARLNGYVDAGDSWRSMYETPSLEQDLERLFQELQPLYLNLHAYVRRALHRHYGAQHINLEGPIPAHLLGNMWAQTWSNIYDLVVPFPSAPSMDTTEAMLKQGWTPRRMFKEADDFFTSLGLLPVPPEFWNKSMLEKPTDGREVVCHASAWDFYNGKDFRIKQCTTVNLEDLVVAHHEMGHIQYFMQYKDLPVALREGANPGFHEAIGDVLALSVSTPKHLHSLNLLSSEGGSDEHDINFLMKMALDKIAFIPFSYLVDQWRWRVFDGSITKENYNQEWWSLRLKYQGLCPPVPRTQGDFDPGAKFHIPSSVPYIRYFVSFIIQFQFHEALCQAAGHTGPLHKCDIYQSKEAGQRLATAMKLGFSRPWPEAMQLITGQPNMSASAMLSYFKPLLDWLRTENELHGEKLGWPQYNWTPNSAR
Procedure: Substrate-buffer solution was prepared by mixing buffer, substrate and water at a ratio of 1:1:2.8 (final concentration in the assay mixture; 0.1M K phosphate, pH 8.3, 0.3M NaCl; 5mM hippuryl-L-histidyl-L-leucine).
Ten μl of serum was added to 240 μl of substrate-buffer solution at 37° C. in a 12 × 75 mm test tube tightly covered with Parafilm, mixed with a vortex mixer and incubated for 15 minutes at 37° C. Duplicate reaction mixtures were stopped by addition of 1.45 ml of 0.28 M NaOH and mixing with a vortex mixer. […] In order to keep the blank low, the development of fluorescence should be started as soon as possible after the addition of NaOH.
One hundred μl of o-phthaldialdehyde reagent was added to each tube which was mixed with a vortex mixer. […] The fluorescence was read in a 1 cm rectangular fluorescence cuvette in a Perkin-Elmer MPF-4 fluorimeter with 8 mm entrance and exit slits and a 7.5 V energy output between 30 and 90 minutes after addition of HCl, during which time it was stable. The excitation wavelength was 360 nm and the emission fluorescence wavelength was 500 nm.
Enzyme activity in nmoles L-histidyl-L-leucine/min/ml serum was calculated by two methods. The first is applicable for ratios of up to 2 of corrected assay/standard fluorescence. […]

[4] = Apparent hydrolysis of hippuryl-L-histidyl-L-leucine in NaOH; format: physicochemical; conditions: 30 minutes between NaOH addition and fluorescence development
Procedure: Ten μl of serum was added to 240 μl of substrate-buffer solution at 37° C. in a 12 × 75 mm test tube tightly covered with Parafilm, mixed with a vortex mixer and incubated for 15 minutes at 37° C. Duplicate reaction mixtures were stopped by addition of 1.45 ml of 0.28 M NaOH and mixing with a vortex mixer. A substrate-buffer blank was similarly treated at the same time except that enzyme was added immediately after NaOH, and was an important control for the slow breakdown of hippuryl-L-histidine-L-leucine in NaOH. In order to keep the blank low, the development of fluorescence should be started as soon as possible after the addition of NaOH.
When large quantities of enzyme were used, this effect was small compared to the total fluorescence developed. However, the increase in fluorescence intensity of the blank in 30 minutes was equivalent to 1.3 nmol/min/ml and would result in a value 4% below the true one for an enzyme activity of 34 nmol/min/ml, which is in the normal range. To avoid spuriously high blanks due to base catalyzed hydrolysis, addition of NaOH to the blank, followed by enzyme, was made at the same time that NaOH was added to terminate the enzymatic reaction of the reacted samples.

[5] = tested on: angiotensin converting enzyme of rabbit lung; conditions: rabbit lung enzyme system; Cushman and Cheung 1971; cited from earlier work
[6] = tested on: serum angiotensin converting enzyme; test: Serum angiotensin converting enzyme assay with angiotensin I as substrate; format: biochemical, human
Procedure: Three mg of angiotensin I were dissolved in 10 ml buffer, 0.03125 M NaCl and 0.104 M potassium phosphate, pH 7.5. The optical density (O.D.) of the solution at 275 nM was measured against the buffer. The O.D. of the angiotensin I solution was adjusted to 0.272 by either adding more buffer or solid angiotensin I. Based on a mMolar extintion coefficient of 1.31 at 275 nM, the final concentration in the assay was 0.2 mM angiotensin I which is about 4-5 times the Km of this enzyme previously measured. Two hundred forty μl of the angiotensin I solution were added to each tube, then warmed to 37° C. […] of serum were added to each tube, sealed and incubated for 1 hour. […]
For fluorescence development, 100 μl of 2% o-phthaldialdehyde in methanol were added to each tube and mixed with a vortex mixer. […] The fluorescence was read in a 1 cm rectangular fluorescence cuvette in a Perkin-Elmer MPF-4 fluorimeter with a 4 mm entrance and 8 mm exit slit and a 7.5 V energy output between 30-90 minutes after the addition of HCl, during which time the fluorescence was stable. The excitation wavelength was […] and the emission fluorescence wavelength was […].
Calculation of enzymatic activity in nmoles L-histidyl-L-leucine released/min/ml of serum was calculated as follows: Angiotensin converting enzyme activity, nmole his-leu released/min/ml serum = [formula]

- Km [1]: 160 µM
Molecule: CC(C)C[C@H](NC(=O)[C@@H](N)Cc1c[nH]cn1)C(=O)O [L-histidyl-L-leucine] (H-His-Leu-OH)
- Km [2]: 200 µM

- Substrate concentration at maximum activity [3]: 5 mM
- Substrate concentration at which inhibition was noted [3]: 15 mM
- Increase in fluorescence intensity of the blank, as equivalent enzyme activity (base-catalyzed hydrolysis) [4]: 1.3 nmol/min/mL
Molecule: CC(C)C[C@H](NC(=O)[C@H](Cc1c[nH]cn1)NC(=O)CNC(=O)c1ccccc1)C(=O)O [hippuryl-L-histidyl-L-leucine, Hippuryl-L-histidyl-L-leucine] (Bz-Gly-His-Leu-OH)
- Km [5]: 2600 µM
- Substrate concentration above which inhibition was present [5]: above 10 mM

- Activity as substrate compared with hippuryl-L-histidyl-L-leucine [6]: considerably lower
Molecule: angiotensin I (DRVYIHPFHL; Angiotensin-1; UniProt P01019 25-34, looked up) [decapeptide natural substrate of angiotensin converting enzyme]
